40 compounds from US11230541B2, “Heterocyclic compound” (Takeda Pharmaceutical Company Limited, priority 2017, dated 2022) can be followed below.

This test deals with T1, NMDA receptor composed of four subunits including 2 sets of heterodimers of NR1 and NR2B (Homo sapiens, UniProt Q13224).
T1 construct: host or cells: HEK293 (tetracycline-induced expression)
T1 sequence (Q13224 27-1484, other chains not shown): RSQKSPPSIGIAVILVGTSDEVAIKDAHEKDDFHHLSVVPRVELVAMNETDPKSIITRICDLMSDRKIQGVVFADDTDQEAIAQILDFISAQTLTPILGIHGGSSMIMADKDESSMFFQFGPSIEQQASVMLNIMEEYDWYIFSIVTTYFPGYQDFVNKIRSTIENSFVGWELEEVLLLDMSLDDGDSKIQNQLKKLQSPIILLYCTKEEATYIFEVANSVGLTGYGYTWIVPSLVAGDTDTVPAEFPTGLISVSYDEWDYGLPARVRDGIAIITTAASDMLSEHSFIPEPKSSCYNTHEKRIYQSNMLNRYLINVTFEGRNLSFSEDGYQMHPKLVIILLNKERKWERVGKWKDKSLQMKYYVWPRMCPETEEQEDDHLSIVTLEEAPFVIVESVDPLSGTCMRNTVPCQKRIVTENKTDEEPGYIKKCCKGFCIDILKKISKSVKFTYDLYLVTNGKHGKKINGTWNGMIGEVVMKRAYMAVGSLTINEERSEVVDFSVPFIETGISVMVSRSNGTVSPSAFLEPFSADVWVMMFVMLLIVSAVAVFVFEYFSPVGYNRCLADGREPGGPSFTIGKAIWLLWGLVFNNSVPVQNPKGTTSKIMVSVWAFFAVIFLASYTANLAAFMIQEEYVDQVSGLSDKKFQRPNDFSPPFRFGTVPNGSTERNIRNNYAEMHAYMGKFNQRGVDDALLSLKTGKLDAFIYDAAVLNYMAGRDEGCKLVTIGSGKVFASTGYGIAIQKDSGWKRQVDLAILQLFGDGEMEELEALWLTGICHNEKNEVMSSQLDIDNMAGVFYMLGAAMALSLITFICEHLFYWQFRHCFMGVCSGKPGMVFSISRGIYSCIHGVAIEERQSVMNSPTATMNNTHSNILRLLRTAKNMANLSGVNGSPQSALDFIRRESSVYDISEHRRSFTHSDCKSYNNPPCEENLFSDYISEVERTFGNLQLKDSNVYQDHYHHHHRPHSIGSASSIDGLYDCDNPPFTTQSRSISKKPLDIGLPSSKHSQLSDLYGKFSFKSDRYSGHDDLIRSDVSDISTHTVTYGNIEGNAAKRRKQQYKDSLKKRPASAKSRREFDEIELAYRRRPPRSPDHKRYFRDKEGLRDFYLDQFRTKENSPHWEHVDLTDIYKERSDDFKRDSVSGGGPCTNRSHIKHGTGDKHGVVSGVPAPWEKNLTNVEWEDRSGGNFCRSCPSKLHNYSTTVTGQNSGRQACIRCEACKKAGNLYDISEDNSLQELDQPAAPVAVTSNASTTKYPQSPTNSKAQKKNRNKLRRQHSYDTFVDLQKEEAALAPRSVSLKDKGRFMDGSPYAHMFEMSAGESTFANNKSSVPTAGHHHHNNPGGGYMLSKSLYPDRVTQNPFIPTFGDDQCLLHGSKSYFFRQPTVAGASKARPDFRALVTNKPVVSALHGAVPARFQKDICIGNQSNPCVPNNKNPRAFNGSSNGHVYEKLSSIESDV
In words: NR2B Ca2+ influx assay (FLIPR, Fluo-4) in HEK293 cells expressing human GRIN1 and GRIN2B. In kind it is cell-based. The settings on record: HEK293, 10 μM final compound concentration, glutamic acid/glycine-induced Ca2+ influx, read-out: inhibitory rate (10 μM compound concentration). An outline of the steps: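 Tetracycline-induced (2 h) HEK293 cells expressing human GRIN1/GRIN2B, Fluo-4-loaded, were preincubated 15 min at room temperature with compound at 10 μM final. FLIPR recorded Ca2+ influx every 3 s for 5 min after glutamate/glycine addition (30 μM in added buffer); inhibition from cumulative fluorescence relative to agonist-free wells.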
Turning to `CCc1ccc2ncn(C)c2c1CNC(=O)c1ccc(OC)c(F)c1` [Example 130, N-((6-ethyl-1-methyl-1H-benzimidazol-7-yl)methyl)-3-fluoro-4-methoxybenzamide], the inhibition at 10 µM was found to be 91%.

For `Cc1cc(C(=O)NCc2c(C3CC3)ccc3[nH]ncc23)cc(F)c1F` [Example 76, N-((5-cyclopropyl-1H-indazol-4-yl)methyl)-3,4-difluoro-5-methyl-benzamide], the inhibition at 10 µM amounted to 93%.

For the compound `CCc1ccc(C(=O)NCc2c(OC)ccc3ncn(C)c23)s1` [Example 122, 5-ethyl-N-((6-methoxy-1-methyl-1H-benzimidazol-7-yl)methyl)thiophene-2-carboxamide], the inhibition at 10 µM turned out to be 90%.

In the case of `COc1ccc2ncn(C)c2c1CNC(=O)c1cc(C)c(OC)c(C)c1` [Example 35, 4-methoxy-N-((6-methoxyl-methyl-1H-benzimidazol-7-yl)methyl)-3,5-dimethylbenzamide], the inhibition at 10 µM was found to be 77%.

For the compound `O=C(NCc1c(C2CC2)ccc2[nH]ncc12)c1cc(Cl)cs1` [Example 70, 4-chloro-N-((5-cyclopropyl-1H-indazol-4-yl)methyl)thiophene-2-carboxamide], the inhibition at 10 µM was determined as 92%.

As to `COc1ccc2ncn(C)c2c1CNC(=O)c1csc(C2CC2)c1` [Example 115, 5-cyclopropyl-N-((6-methoxy-1-methyl-1H-benzimidazol-7-yl)methyl)thiophene-3-carboxamide], the inhibition at 10 µM was determined as 93%.

For the compound `COc1ccc2ncn(C)c2c1CNC(=O)Cc1cccs1` [Example 33, N-((6-methoxy-1-methyl-1H-benzimidazol-7-yl)methyl)-2-(2-thienyl)acetamide], the inhibition at 10 µM is 86%.

On to `O=C(NCc1cccc2[nH]ncc12)c1ccc(C(F)F)c(Cl)c1` [Example 190, 3-chloro-4-(difluoromethyl)-N-(1H-indazol-4-ylmethyl)benzamide], for which the inhibition at 10 µM came out at 86%.

As to `COc1ccc2nc(C)n(C)c2c1CNC(=O)c1ccc(OC(F)F)c(F)c1` [Example 253, 4-(difluoromethoxy)-3-fluoro-N-((6-methoxy-1,2-dimethyl-1H-benzimidazol-7-yl)methyl)benzamide], the inhibition at 10 µM worked out at 84%.

With `COc1ccc2ncn(C)c2c1CNC(=O)c1csc(C(F)F)c1` [Example 110, 5-(difluoromethyl)-N-((6-methoxy-1-methyl-1H-benzimidazol-7-yl)methyl)thiophene-3-carboxamide], the inhibition at 10 µM came to 92%.

As for `COc1ncc(C(=O)NCc2c(C)ccc3ncn(C)c23)cc1F` [Example 19, N-((1,6-dimethyl-1H-benzimidazol-7-yl)-methyl)-5-fluoro-6-methoxynicotinamide], the inhibition at 10 µM is 83%.

`COc1ccc2ncn(C)c2c1CNC(=O)c1cnc(C(F)(F)F)c(Cl)c1` [Example 113, 5-chloro-N-((6-methoxy-1-methyl-1H-benzimidazol-7-yl)methyl)-6-(trifluoromethyl)-nicotinamide]: the inhibition at 10 µM came to 90%.

Take `COc1ncc(C(=O)NCc2cccc3[nH]ncc23)cc1Cl` [Example 169, 5-chloro-N-(1H-indazol-4-ylmethyl)-6-methoxynicotinamide]: the inhibition at 10 µM stood at 70%.

With `Cc1ccc(C(=O)NCc2cccc3[nH]ncc23)cc1F` [Example 176, 3-fluoro-N-(1H-indazol-4-ylmethyl)-4-methylbenzamide], the inhibition at 10 µM came out at 51%.

For `O=C(NCc1c(C(F)(F)F)ccc2[nH]ncc12)c1ccc(OC(F)(F)F)cc1` [Example 5, 4-(trifluoromethoxy)-N-((5-(trifluoromethyl)-1H-indazol-4-yl)methyl)benzamide], the inhibition at 10 µM was determined as 85%.

On to `COc1ccc2nc(C)n(C)c2c1CNC(=O)c1cnc(OC(F)F)c(F)c1` [Example 251, 6-(difluoromethoxy)-5-fluoro-N-((6-methoxy-1,2-dimethyl-1H-benzimidazol-7-yl)methyl)nicotinamide], for which the inhibition at 10 µM worked out at 76%.

Take `COc1c(F)cc(C(=O)NCc2cccc3[nH]nnc23)cc1F` [Example 211, N-(1H-benzotriazol-4-ylmethyl)-3,5-difluoro-4-methoxybenzamide]: the inhibition at 10 µM amounted to 95%.

On to `COc1cc(C(=O)NCc2c(OC)ccc3ncn(C)c23)ccc1F` [Example 46, 4-fluoro-3-methoxy-N-((6-methoxy-1-methyl-1H-benzimidazol-7-yl)methyl)benzamide], for which the inhibition at 10 µM was 68%.

`CCOc1ccc2ncn(C)c2c1CNC(=O)c1ccc(C(F)F)c(F)c1` [Example 141, 4-(difluoromethyl)-N-((6-ethoxy-1-methyl-1H-benzimidazol-7-yl)methyl)-3-fluorobenzamide]: the inhibition at 10 µM was found to be 90%.

Consider `COCc1ccc2ncn(C)c2c1CNC(=O)c1ccc(OC(F)F)c(Cl)c1` [Example 283, 3-chloro-4-(difluoromethoxy)-N-{[6-(methoxymethyl)-1-methyl-1H-benzimidazol-7-yl]methyl}benzamide], for which the inhibition at 10 µM worked out at 93%.

As to `O=C(NCc1cccc2[nH]nc(Br)c12)c1ccc(OC(F)(F)F)c(F)c1` [Example 272, N-[(3-bromo-1H-indazol-4-yl)methyl]-3-fluoro-4-(trifluoromethoxy)-benzamide], the inhibition at 10 µM came out at 59%.

On to `CCc1ccc2ncn(C)c2c1CNC(=O)c1ccc(OC(F)F)nc1` [Example 164, 6-(difluoromethoxy)-N-((6-ethyl-1-methyl-1H-benzimidazol-7-yl)methyl)nicotinamide], for which the inhibition at 10 µM was found to be 92%.

Regarding `COc1ccc2ncn(C)c2c1CNC(=O)c1ccc(Cl)s1` [Example 36, 5-chloro-N-((6-methoxy-1-methyl-1H-benzimidazol-7-yl)methyl)-thiophene-2-carboxamide], the inhibition at 10 µM stood at 89%.

Take `O=C(Cc1cccs1)NCc1c(C2CC2)ccc2[nH]ncc12` [Example 65, N-((5-cyclopropyl-1H-indazol-4-yl)methyl)-2-(2-thienyl)acetamide]: the inhibition at 10 µM was 90%.

Regarding `COc1c(F)cc(C(=O)NCc2c(C3CC3)ccc3ncn(C)c23)cc1F` [Example 21], the inhibition at 10 µM worked out at 91%.

Regarding `COc1ccc2ncn(C)c2c1CNC(=O)c1ccc(C)cc1` [Example 114, N-((6-methoxy-1-methyl-1H-benzimidazol-7-yl)methyl)-4-methylbenzamide], the inhibition at 10 µM stood at 87%.

`COc1ccc2ncn(C)c2c1CNC(=O)c1ccc(Cl)c(C)c1` [Example 39, 4-chloro-N-((6-methoxy-1-methyl-1H-benzimidazol-7-yl)-methyl)-3-methyl-benzamide]: the inhibition at 10 µM was 91%.

On to `COCc1ccc2ncn(C)c2c1CNC(=O)c1csc(C(F)(F)F)c1` [Example 282, N-{[6-(methoxymethyl)-1-methyl-lH-benzimidazol-7-yl]methyl)-5-(trifluoromethyl)-thiophene-3-carboxamide], for which the inhibition at 10 µM is 76%.

Turning to `COc1ccc(NC(=O)NCc2c(OC)ccc3ncn(C)c23)cc1` [Example 266, 1-((6-methoxy-1-methyl-lH-benzimidazol-7-yl)methyl)-3-(4-methoxyphenyl)urea], the inhibition at 10 µM came out at 58%.

Consider `COc1ccc2ncn(C)c2c1CNC(=O)c1ccc(C)c(Cl)c1` [Example 38, 3-chloro-N-((6-methoxy-1-methyl-1H-benzimidazol-7-yl)-methyl)-4-methylbenzamide], for which the inhibition at 10 µM was determined as 91%.

On to `COc1ccc(C(=O)NCc2c(OC)ccc3nc(C)n(C)c23)cc1F` [Example 243, 3-fluoro-4-methoxy-N-((6-methoxy-1,2-dimethyl-lH-benzimidazol-7-yl)methyl)benzamide], for which the inhibition at 10 µM was 69%.

Take `Cc1ccc2ncn(C)c2c1CNC(=O)c1ccc(OC(F)(F)F)c(F)c1` [Example 30, N-((1,6-dimethyl-1H-benzimidazol-7-yl)-methyl)-3-fluoro-4-(trifluoromethoxy)-benzamide]: the inhibition at 10 µM was determined as 90%.

`O=C(NCc1c(C2CC2)ccc2[nH]ncc12)c1ccc(C(F)(F)F)c(Cl)c1` [Example 89, 3-chloro-N-((5-cyclo-propyl-1H-indazol-4-yl)methyl)-4-(trifluoro-methyl)benzamide]: the inhibition at 10 µM is 91%.

Consider `O=C(NCc1c(C2CC2)ccc2[nH]ncc12)c1ccc(Cl)s1` [Example 71, 5-chloro-N-((5-cyclopropyl-1H-indazol-4-yl)methyl)thiophene-2-carboxamide], for which the inhibition at 10 µM came out at 92%.

In the case of `O=C(NCc1cccc2[nH]ncc12)c1ccc(OC(F)F)c(Cl)c1` [Example 182, 3-chloro-4-(difluoromethoxy)-N-(1H-indazol-4-ylmethyl)benzamide], the inhibition at 10 µM is 97%.

On to `Cc1ccc2ncn(C)c2c1CNC(=O)c1ccc(OC(F)(F)F)cc1` [Example 152, N-((1,6-dimethyl-1H-benzimidazol-7-yl)methyl)-4-(trifluoromethoxy)benzamide], for which the inhibition at 10 µM was 91%.

Turning to `O=C(NCc1cccc2[nH]ncc12)c1ccc(C(F)F)c(F)c1` [Example 178, 4-(difluoromethyl)-3-fluoro-N-(1H-indazol-4-ylmethyl)benzamide], the inhibition at 10 µM worked out at 70%.

Regarding `CCc1ccc2[nH]nnc2c1CNC(=O)c1ccc(OC(F)(F)F)cc1` [Example 209, N-((5-ethyl-1H-benzotriazol-4-yl)methyl)-4-(trifluoromethoxy)-benzamide], the inhibition at 10 µM worked out at 94%.

`COc1ccc2ncn(C)c2c1CNC(=O)c1ccc(OC(F)(F)F)nc1` [Example 56, ((6-methoxy-1-methyl-1H-benzimidazol-7-yl)methyl)-6-(trifluoro-methoxy)nicotinamide]: the inhibition at 10 µM stood at 93%.

Turning to `COc1ccc2ncn(C)c2c1CNC(=O)c1csc(Cl)c1` [Example 28, 5-chloro-N-((6-methoxy-1-methyl-1H-benzimidazol-7-yl)nethyl)thiophene-3-carboxamide], the inhibition at 10 µM was found to be 90%.
